The subject of one data set is Human alphaherpesvirus 1. The data set is described as follows: Antiviral activity against HSV1/F infected in African green monkey Vero cells assessed as inhibition of plaque formation after 24 hrs by crystal violet staining-based assay. Type of data set: functional, organism-based. The settings on record: Human alphaherpesvirus 1, strain F.
Data set [1] in a line: Cytotoxicity against African green monkey Vero cells assessed as decrease in cell viability after 24 hrs by CellTiter-Glo luminescent assay. Type of data set: cell-based. The settings on record: chlorocebus sabaeus.
The nature of data set [2]: Selectivity index, ratio of CC50 for African green monkey Vero cells to IC50 for HSV1/F. The class given is toxicity. To be noted: read-out: Ratio CC50/IC50.

Consider `CCCCCCCCCC(=O)/C=C/c1c(CCCCCCCCC)oc2c(O)ccc(-c3oc4cc(O)cc(O)c4c(=O)c3O[C@@H]3O[C@H](CO)[C@H](O)[C@H](O)[C@H]3O)c12`, for which, in the data set on Human alphaherpesvirus 1, the IC50 came to 17.7 µM. The CC50 at 24 h in data set [1] was > 200 µM. Moreover, in data set [2], the selectivity ratio is > 11.3.

For the compound `CCCCCCCCCc1oc2c(O)ccc(-c3oc4cc(O)cc(O)c4c(=O)c3O[C@@H]3O[C@H](CO)[C@H](O)[C@H](O)[C@H]3O)c2c1C=O`, the IC50 in the data set on Human alphaherpesvirus 1 turned out to be 12.4 µM. For the same compound, the CC50 at 24 h in data set [1] is > 200 µM. Besides, in data set [2], the selectivity ratio was > 16.1.

In the case of `Nc1nc2c(ncn2COCCO)c(=O)[nH]1` [ACYCLOVIR], the IC50 with Human alphaherpesvirus 1 came to 0.15 µM. The CC50 at 24 h in data set [1] was > 200 µM. The selectivity ratio in data set [2] is > 1330.
